These are literature values, as cited in patent US20050101577A1, “2-alkylidene-19-nor-vitamin D derivatives for the treatment of rickets or vitamin D deficiency” (Pfizer Inc., priority 2003, published 2005).

In this data set the test system is intestinal calcium transport. The settings on record: 260 pmol/day, only dose tested.

The structures appear in SMILES notation.

For `C=C1/C(=C\C=C2/CCC[C@]3(C)[C@@H]([C@H](C)CCCC(C)(C)O)CC[C@@H]23)C[C@@H](O)C[C@@H]1O` [1,25-(OH)2D3, 1,25-dihydroxyvitamin D3], the “intestinal calcium transport (in words)” value is recorded as “expected elevation of intestinal calcium transport”.
